Test system: osteoclast pregenitor cells
Assay: Inhibition rates of furan derivatives versus osteoclast formation (TRAP staining)
Format: cell-based, mice
Conditions: TRAP-positive multinucleated cells, untreated control set as 100%
Procedure: First, bone marrow cells were isolated, as follow. After sacrificing 7-9 week female mice by cervical dislocation, femur and tibia were excised aseptically while removing attached soft tissues. After cutting both ends of long bones, 1 ml of an enzyme solution, containing 0.1% collagenase (Gibco), 0.05% trypsin and 0.5 mM EDTA (Gibco), was injected to the bone marrow cavity at one end using a syringe with a 26-guage needle, and bone marrow was then collected. After shaking the recovered bone marrow for 30 min, bone marrow cells were collected, and cultured in α-minimum essential medium (α-MEM) supplemented with 10% FBS for 24 hrs. Then, non-adherent cells were collected, which are osteoclast pregenitors, aliquotted onto culture plates at a density of 2×10^5 cells per well, and cultured for 8 days in α-MEM supplemented with 20 ng/ml of macrophage-colony stimulating factor (M-CSF, Peprotech, USA) and 30 ng/ml RANKL (Peprotech, USA). During the 8 days of culturing, the cells were treated with the Compound 1. Thereafter, osteoclast formation was investigated by fixing the cultured cells and then carrying out TRAP staining, as described in the following Experimental Example 2.2. In addition, resorption activity of osteoclasts was investigated by measuring the absorption area after removing osteoclasts in cultures in calcium phosphate-coated plates, as described in Experimental Example 2.3, below.
After cell culture, the adherent cells were washed with PBS, and TRAP staining was performed, as follows. After being fixed with citrate-acetate-formaldehyde for 5 min, the cells were incubated for 1 hr in acetate buffer (prewarmed at 37° C., pH 5.0) containing naphthol AS-BI phosphate, fast Garnet GBC and 7 mM tartrate buffer (pH 5.0). TRAP-positive multinucleated cells having 3 or more nuclei were considered as osteoclasts.
Osteoclast pregenitor cells were isolated, and their differentiation to mature osteoclasts was induced, according to the same method as in the Experimental Example 2-1, while treated with each of the furan derivatives of the present invention. According to the same method as in the Experimental Example 2-2, TRAP staining performed, and TRAP-positive multinucleated cells were counted. An inhibition rate of each furan derivative against osteoclast formation was expressed as percentage, wherein the number of stained cells in a control not treated the furan derivative was arbitrarily set as 100% (Tables 14 to 16).

Cc1cc(OCc2ccc(C(=O)N3CCOCC3)o2)ccc1Cl [Compound 132]
Inhibition rate against osteoclast formation, % (0.1 μM): 0% | Inhibition rate against osteoclast formation, % (1 μM): 0% | Inhibition rate against osteoclast formation, % (10 μM): 62.30%

O=C(O)c1ccc(COc2ccccc2Br)o1 [Compound 108]
Inhibition rate against osteoclast formation, % (0.1 μM): 0% | Inhibition rate against osteoclast formation, % (1 μM): 0% | Inhibition rate against osteoclast formation, % (10 μM): 14.72%

CCCc1ccc(OCc2ccc(C(=O)Nc3ccc(F)cc3F)o2)c(OC)c1 [Compound 176]
Inhibition rate against osteoclast formation, % (0.1 μM): 0% | Inhibition rate against osteoclast formation, % (1 μM): 0% | Inhibition rate against osteoclast formation, % (10 μM): 15.56%

CCCc1ccc(OCc2ccc(C(=O)O)o2)cc1 [Compound 100]
Inhibition rate against osteoclast formation, % (0.1 μM): 0% | Inhibition rate against osteoclast formation, % (1 μM): 0% | Inhibition rate against osteoclast formation, % (10 μM): 10.46%

CCCc1ccc(OCc2ccc(C(=O)Nc3ccc(OC)c(OC)c3)o2)cc1 [Compound 164]
Inhibition rate against osteoclast formation, % (0.1 μM): 0% | Inhibition rate against osteoclast formation, % (1 μM): 0% | Inhibition rate against osteoclast formation, % (10 μM): 30.52%

O=C(Oc1ccccc1)c1ccc(COc2ccccc2Cl)o1 [Compound 98]
Inhibition rate against osteoclast formation, % (0.1 μM): 0% | Inhibition rate against osteoclast formation, % (1 μM): 0% | Inhibition rate against osteoclast formation, % (10 μM): 9.89%

CCc1cccc(NC(=O)c2ccc(COc3ccc(F)cc3)o2)c1 [Compound 163]
Inhibition rate against osteoclast formation, % (0.1 μM): 0% | Inhibition rate against osteoclast formation, % (1 μM): 0% | Inhibition rate against osteoclast formation, % (10 μM): 51.2%

O=C(Nc1ccccc1)c1ccc(COc2ccc3ccccc3c2)o1 [Compound 137]
Inhibition rate against osteoclast formation, % (0.1 μM): 0% | Inhibition rate against osteoclast formation, % (1 μM): 0% | Inhibition rate against osteoclast formation, % (10 μM): 38.3%

CCc1ccc(OCc2ccc(C(=O)Nc3cc(C)cc(C)c3)o2)cc1 [Compound 169]
Inhibition rate against osteoclast formation, % (0.1 μM): 0% | Inhibition rate against osteoclast formation, % (1 μM): 0% | Inhibition rate against osteoclast formation, % (10 μM): 21.04%

O=C(Nc1ccc(F)cc1)c1ccc(COc2cccc(Cl)c2)o1 [Compound 141]
Inhibition rate against osteoclast formation, % (0.1 μM): 0% | Inhibition rate against osteoclast formation, % (1 μM): 0% | Inhibition rate against osteoclast formation, % (10 μM): 13.01%

COC(=O)c1ccc(CNc2ccccc2)o1 [Compound 89]
Inhibition rate against osteoclast formation, % (0.1 μM): 0% | Inhibition rate against osteoclast formation, % (1 μM): 0% | Inhibition rate against osteoclast formation, % (10 μM): 12.6%

O=Cc1ccc(COC(=O)Cc2cccc(Cl)c2)o1 [Compound 35]
Inhibition rate against osteoclast formation, % (0.1 μM): 0% | Inhibition rate against osteoclast formation, % (1 μM): 23.33% | Inhibition rate against osteoclast formation, % (10 μM): 43.33%

CCC(C)NC(=O)c1ccc(COc2ccc(I)cc2)o1 (centres unmarked) [Compound 121]
Inhibition rate against osteoclast formation, % (0.1 μM): 0% | Inhibition rate against osteoclast formation, % (1 μM): 0% | Inhibition rate against osteoclast formation, % (10 μM): 7.12%

O=C(Nc1cc(F)ccc1F)c1ccc(COc2ccccc2Cl)o1 [Compound 161]
Inhibition rate against osteoclast formation, % (0.1 μM): 0% | Inhibition rate against osteoclast formation, % (1 μM): 0% | Inhibition rate against osteoclast formation, % (10 μM): 11.33%

CC(C)NC(=O)c1ccc(CNc2cc(Cl)ccc2Cl)o1 [Compound 130]
Inhibition rate against osteoclast formation, % (0.1 μM): 0% | Inhibition rate against osteoclast formation, % (1 μM): 0% | Inhibition rate against osteoclast formation, % (10 μM): 7.84%

O=C(Nc1cccc(Br)c1)c1ccc(COc2ccc(F)cc2)o1 [Compound 140]
Inhibition rate against osteoclast formation, % (0.1 μM): 0% | Inhibition rate against osteoclast formation, % (1 μM): 0% | Inhibition rate against osteoclast formation, % (10 μM): 11.93%

O=Cc1ccc(COC(=O)Cc2cccc(F)c2)o1 [Compound 37]
Inhibition rate against osteoclast formation, % (0.1 μM): 0% | Inhibition rate against osteoclast formation, % (1 μM): 10% | Inhibition rate against osteoclast formation, % (10 μM): 6.67%

O=C(Nc1cc(C(F)(F)F)ccc1Cl)c1ccc(COc2ccc(Cl)cc2)o1 [Compound 181]
Inhibition rate against osteoclast formation, % (0.1 μM): 0% | Inhibition rate against osteoclast formation, % (1 μM): 0% | Inhibition rate against osteoclast formation, % (10 μM): 56.96%

COC(=O)c1ccc(COc2cc(C)ccc2C(C)C)o1 [Compound 68]
Inhibition rate against osteoclast formation, % (0.1 μM): 0% | Inhibition rate against osteoclast formation, % (1 μM): 0%

O=C(Nc1cc(F)ccc1F)c1ccc(COc2cccc(Cl)c2)o1 [Compound 151]
Inhibition rate against osteoclast formation, % (0.1 μM): 0% | Inhibition rate against osteoclast formation, % (1 μM): 0% | Inhibition rate against osteoclast formation, % (10 μM): 19.8%

Cc1cc(C)cc(OCc2ccc(C(=O)Nc3ccccc3F)o2)c1 [Compound 177]
Inhibition rate against osteoclast formation, % (0.1 μM): 0% | Inhibition rate against osteoclast formation, % (1 μM): 0% | Inhibition rate against osteoclast formation, % (10 μM): 11.03%

Cc1ccc(OCc2ccc(C(=O)Nc3ccc(F)c(F)c3)o2)cc1C [Compound 186]
Inhibition rate against osteoclast formation, % (0.1 μM): 0% | Inhibition rate against osteoclast formation, % (1 μM): 0% | Inhibition rate against osteoclast formation, % (10 μM): 21.09%

O=C(O)c1ccc(COc2ccc(Br)cc2)o1 [Compound 103]
Inhibition rate against osteoclast formation, % (0.1 μM): 0% | Inhibition rate against osteoclast formation, % (1 μM): 0% | Inhibition rate against osteoclast formation, % (10 μM): 2.77%

COc1ccc(C)cc1NC(=O)c1ccc(COc2cccc(Cl)c2)o1 [Compound 171]
Inhibition rate against osteoclast formation, % (0.1 μM): 0% | Inhibition rate against osteoclast formation, % (1 μM): 0% | Inhibition rate against osteoclast formation, % (10 μM): 0.42%

CCOc1ccccc1NC(=O)c1ccc(COc2ccc(Cl)cc2[N+](=O)[O-])o1 [Compound 144]
Inhibition rate against osteoclast formation, % (0.1 μM): 0% | Inhibition rate against osteoclast formation, % (1 μM): 21.95% | Inhibition rate against osteoclast formation, % (10 μM): 85.25%

O=C(O)c1ccc(COc2ccc(F)cc2)o1 [Compound 102]
Inhibition rate against osteoclast formation, % (0.1 μM): 0% | Inhibition rate against osteoclast formation, % (1 μM): 0% | Inhibition rate against osteoclast formation, % (10 μM): 5.05%

O=Cc1ccc(COC(=O)Nc2ccc(Cl)c(Cl)c2)o1 [Compound 54]
Inhibition rate against osteoclast formation, % (0.1 μM): 0% | Inhibition rate against osteoclast formation, % (1 μM): 0% | Inhibition rate against osteoclast formation, % (10 μM): 10%

O=C(Nc1cccc(Cl)c1Cl)c1ccc(COc2ccccc2[N+](=O)[O-])o1 [Compound 156]
Inhibition rate against osteoclast formation, % (0.1 μM): 13.01% | Inhibition rate against osteoclast formation, % (1 μM): 18.26% | Inhibition rate against osteoclast formation, % (10 μM): 98.48%

COc1ccc(F)c(CC(=O)OCc2ccc(C=O)o2)c1 [Compound 42]
Inhibition rate against osteoclast formation, % (0.1 μM): 0% | Inhibition rate against osteoclast formation, % (1 μM): 23.33% | Inhibition rate against osteoclast formation, % (10 μM): 53.33%

COC(=O)c1ccc(C)c(NC(=O)c2ccc(COc3ccc(I)cc3)o2)c1 [Compound 152]
Inhibition rate against osteoclast formation, % (0.1 μM): 5.37% | Inhibition rate against osteoclast formation, % (1 μM): 0.08% | Inhibition rate against osteoclast formation, % (10 μM): 37.56%

O=C(Nc1ccc(F)cc1F)c1ccc(COc2c(F)c(F)cc(F)c2F)o1 [Compound 185]
Inhibition rate against osteoclast formation, % (0.1 μM): 0% | Inhibition rate against osteoclast formation, % (1 μM): 0% | Inhibition rate against osteoclast formation, % (10 μM): 13.64%

COC(=O)c1ccc(COc2ccccc2[N+](=O)[O-])o1 [Compound 67]
Inhibition rate against osteoclast formation, % (0.1 μM): 0% | Inhibition rate against osteoclast formation, % (1 μM): 0% | Inhibition rate against osteoclast formation, % (10 μM): 15.92%

COC(=O)c1ccccc1NC(=O)c1ccc(COc2ccc(C)c(C)c2)o1 [Compound 180]
Inhibition rate against osteoclast formation, % (0.1 μM): 0% | Inhibition rate against osteoclast formation, % (1 μM): 0% | Inhibition rate against osteoclast formation, % (10 μM): 8.15%

COc1ccccc1OCc1ccc(C(=O)Nc2ccccc2Cl)o1 [Compound 174]
Inhibition rate against osteoclast formation, % (0.1 μM): 0% | Inhibition rate against osteoclast formation, % (1 μM): 0% | Inhibition rate against osteoclast formation, % (10 μM): 14.11%

Reference: patent US20060004088A1, “Furan derivatives for preventing and curing osteoporosis and pharmaceutical compositions containing the same” (OCT INC., priority 2002, published 2006)
